Active and inactive are the calls of the source.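 How the source made its calls: active means lipid-stain IC50 at or below a set limit, with nuclear-stain toxicity IC50 at least five times higher; inactive means the rest.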
Legend:
DAPI = assay: TAG lipid buildup inhibition with viability readout – cell-based, panel, Nile Red and DAPI fluorescence, H9c2, dose response (AID 651630); details: H9c2 cells, DAPI nuclear fluorescence (cytotoxicity counter-readout), oleic acid;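 further: cells exposed to compound overnight before fixation and staining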
TAG = assay: as above; details: H9c2 cells, Nile Red TAG fluorescence, oleic acid

Row | SMILES | IC50 cytotoxicity (DAPI nuclear signal decrease) (DAPI; mean of runs) | IC50 cytotoxicity (DAPI nuclear signal decrease) (DAPI; run 1) | IC50 cytotoxicity (DAPI nuclear signal decrease) (DAPI; run 2) | IC50 (TAG; mean of runs) | IC50 (TAG; run 1) | IC50 (TAG; run 2)
1 | COc1cccc(/C=C/C(=C2\C(=O)N(c3ccccc3)N=C2C)c2ccc(Br)cc2)c1OC | > 25 µM (inactive) | > 25 µM | > 25 µM | 5.18 µM | 5.94 µM | 4.43 µM
2 | N#CCC(=O)N/N=C/c1cn(Cc2ccc(Cl)c(Cl)c2)c2ccccc12 | > 25 µM (inactive) | > 25 µM | > 25 µM |  | 19.9 µM | > 25 µM
3 | Cc1noc(C)c1-c1ccc2ncnc(NCC3CCCCN3C)c2c1 (centres undefined) | > 25 µM (inactive) | > 25 µM | > 25 µM | > 25 µM (inactive) | > 25 µM | > 25 µM
4 | N#CC1C=Cc2c(ccc3ccccc23)N1C(=O)c1ccccc1 (centres undefined) | > 25 µM (inactive) | > 25 µM | > 25 µM | > 25 µM (inactive) | > 25 µM | > 25 µM
5 | Cc1ccc(Cl)cc1NC(=S)N/N=C/c1cccc2ccccc12 | > 25 µM (inactive) | > 25 µM | > 25 µM |  | 19.9 µM | > 25 µM
6 | CCOc1c(Cl)cc(/C=C/C(=O)N(CC)CC(=O)NCc2cccs2)cc1OC | > 25 µM (inactive) | > 25 µM | > 25 µM | 17 µM (inactive) | 19.2 µM | 14.8 µM
7 | Cc1ccc(NC(=O)Cn2nnc(-c3ccccc3NC(=O)c3cccs3)n2)cc1 | > 25 µM (inactive) | > 25 µM | > 25 µM | 5.75 µM | 7.48 µM | 4.02 µM
8 | O=C(CCC(=O)N1CCOc2ccc(Cl)cc21)NCCCN1CCC(Cc2ccccc2)CC1 | 15.1 µM (inactive) | 16 µM | 14.2 µM |  | > 25 µM | 9.91 µM
9 | NC(Cc1ccc(C(F)(F)F)cc1)c1csc(Nc2nncc3ccccc23)n1 (centres undefined) | 21.4 µM (inactive) | 21.5 µM | 21.3 µM | > 25 µM (inactive) | > 25 µM | > 25 µM
10 | c1cc(C2CCCCC2)ccc1Oc1nc(N2CCOCC2)nc(N2CCOCC2)n1 | > 25 µM (inactive) | > 25 µM | > 25 µM | > 25 µM (inactive) | > 25 µM | > 25 µM
11 | CCOc1ccc(C2=Nc3ccccc3C(c3ccc(N4CCOCC4)cc3)=NN2)cc1 | > 25 µM (inactive) | > 25 µM | > 25 µM |  | > 25 µM | 14.4 µM
12 | COc1ccc([C@H]2C[C@H](O)[C@@H](n3cc(-c4ccc(F)cc4)nn3)CN2Cc2cccs2)cc1 |  | 23.6 µM | > 25 µM | 18.3 µM (inactive) | 12.2 µM | 24.3 µM
13 | COCCN(Cc1ccccc1)C(=O)C1CCN(C(=O)Nc2ccccc2)CC1 | > 25 µM (inactive) | > 25 µM | > 25 µM | > 25 µM (inactive) | > 25 µM | > 25 µM
14 | Cc1ccc(C(=O)Nc2cc(C)c(OCC(=O)N3CCOCC3)c(C)c2)cc1 | > 25 µM (inactive) | > 25 µM | > 25 µM | > 25 µM (inactive) | > 25 µM | > 25 µM
15 | O=C(C[C@H]1C[C@H](C(=O)N2CCOCC2)[C@@]2(CCC3CCCC3)c3[nH]c4ccc(Cl)cc4c3CCN2C1=O)NCC12CC3CC(CC(C3)C1)C2 | > 25 µM (inactive) | > 25 µM | > 25 µM | > 25 µM (inactive) | > 25 µM | > 25 µM
16 | O=C(Nc1ccc(-c2csc(Nc3ccc(Cl)cc3)n2)cc1)c1cc([N+](=O)[O-])cc(C(F)(F)F)c1 | > 25 µM (inactive) | > 25 µM | > 25 µM | 8.54 µM | 6.55 µM | 10.5 µM
17 | COc1cccc(N=Nc2c(O)[nH]c(=S)[nH]c2=O)c1 |  | 6.31 µM | > 25 µM | > 25 µM (inactive) | > 25 µM | > 25 µM

Row | SMILES | IC50 cytotoxicity (DAPI nuclear signal decrease) (DAPI; mean of runs) | IC50 cytotoxicity (DAPI nuclear signal decrease) (DAPI; run 1) | IC50 cytotoxicity (DAPI nuclear signal decrease) (DAPI; run 2) | IC50 (TAG; mean of runs) | IC50 (TAG; run 1) | IC50 (TAG; run 2)
18 | O=C(Nc1ccc(-c2csc(Nc3cccc(C(F)(F)F)c3)n2)cc1)c1cccc(C(F)(F)F)c1 | > 25 µM (inactive) | > 25 µM | > 25 µM | 6.44 µM | 5.94 µM | 6.94 µM
19 | CCOC(=O)Cc1ccc(Nc2nc3cc(-c4sccc4C)sc3c(=O)n2C)cc1 | > 25 µM (inactive) | > 25 µM | > 25 µM | 18.5 µM (inactive) | 12.9 µM | 24.1 µM
20 | c1ccc(N(c2ccccc2)c2nc(N3CCCC3)nc(-n3ccnc3)n2)cc1 | > 25 µM (inactive) | > 25 µM | > 25 µM | 17.7 µM (inactive) | 19.1 µM | 16.3 µM
21 | Cc1cc(NC(=O)CSc2nc(C(C)C)nc3sc4c(c23)CCC(C)C4)no1 (centres undefined) | > 25 µM (inactive) | > 25 µM | > 25 µM | > 25 µM (inactive) | > 25 µM | > 25 µM
22 | CCOC(=O)C(C)Oc1cccc2c(=O)n(CC(=O)NCc3ccc4c(c3)OCO4)ccc12 (centres undefined) | > 25 µM (inactive) | > 25 µM | > 25 µM | 18 µM (inactive) | 18.2 µM | 17.9 µM
23 | CCCc1cc(N2CCCC2)n2nc(C)c(-c3ccccc3)c2n1 | > 25 µM (inactive) | > 25 µM | > 25 µM | > 25 µM (inactive) | > 25 µM | > 25 µM
24 | Cc1ccc(C2C(C=Nc3c(C)n(C)n(-c4ccccc4)c3=O)=C(c3ccccc3)Oc3ccccc32)cc1 (centres undefined) | > 25 µM (inactive) | > 25 µM | > 25 µM | 7.41 µM | 6.56 µM | 8.27 µM
25 | CC(C)(C)NC(=O)C(c1ccc(-c2ccccc2)cc1)N(C[C@H]1CC[C@@H]([C@@H]2CC[C@H](CO)O2)O1)C(=O)c1ccc(-c2ccccc2)cc1 (some centres undefined) | > 25 µM (inactive) | > 25 µM | > 25 µM | 13.8 µM | 12.3 µM | 15.3 µM
26 | COc1ccc(NC(=O)Cn2c(=O)n(-c3ccc(CC(=O)NCc4ccco4)cc3)c(=O)c3ccccc32)cc1 | > 25 µM (inactive) | > 25 µM | > 25 µM |  | 24.7 µM | > 25 µM
27 | O=C(NC1CCCCC1)C(c1ccccc1)N(Cc1ccc2c(c1)OCO2)C(=O)c1cnsn1 (centres undefined) | > 25 µM (inactive) | > 25 µM | > 25 µM | 18.7 µM (inactive) | 17.2 µM | 20.2 µM
28 | CCOC(=O)c1ccc(NC(=O)c2nc[nH]c2C(=O)NCCCCNC(=O)c2[nH]cnc2C(=O)Nc2ccc(C(=O)OCC)cc2)cc1 |  | > 25 µM | > 25 µM | 3.89 µM | 3.09 µM | 4.69 µM
29 | Cc1cc(N2CCN(Cc3cn(C)nc3-c3cccc(Cl)c3)CC2)cc(C)n1 | > 25 µM (inactive) | > 25 µM | > 25 µM |  | > 25 µM | 22.5 µM
30 | CCN1C(=O)[C@H]2[C@@H](c3ccc(-c4cccc(Cl)c4)cc3)N[C@@](Cc3ccccc3)(C(=O)OC)[C@H]2C1=O | > 25 µM (inactive) | > 25 µM | > 25 µM | 20 µM (inactive) | 15.9 µM | 24.1 µM
31 | O=C(NCC(c1ccc(F)cc1)N1CCOCC1)c1ccc([N+](=O)[O-])o1 (centres undefined) | 19.7 µM (inactive) | 19.7 µM | 19.6 µM | > 25 µM (inactive) | > 25 µM | > 25 µM
32 | COc1ccc(-c2cc(CNc3nc(NC(C)C)nc4cc(-c5ccccc5)sc34)on2)cc1 | > 25 µM (inactive) | > 25 µM | > 25 µM | 6.39 µM | 6.47 µM | 6.31 µM
33 | COc1cc2nc(NCCCN3CCN(C)CC3)n3nc(-c4ccccc4)nc3c2cc1OC | > 25 µM (inactive) | > 25 µM | > 25 µM | > 25 µM (inactive) | > 25 µM | > 25 µM

— PubChem BioAssay AID651630 (Sanford-Burnham Center for Chemical Genomics, 2012)
